In patent US11236066B2, “Crystalline forms of niraparib tosylate” (Apotex Inc., priority 2019, dated 2022):
Read-outs that look alike come from different tables or passages of the source.

Key:
[1] = cited from earlier work; for Hygroscopicity: description in WO 2018/183354 A1, 4-methylbenzenesulfonate
[2] = 900 mL 0.01 N HCl buffer, 50 rpm, sample compressed at 1.5 metric tons for 1 minute
Experimental: Intrinsic dissolution rate (IDR) measurements were performed using a Wood apparatus. Samples were prepared by compressing the sample at 1.5 metric tons for 1 minute. A dissolution medium consisting of 900 mL 0.01 N HCl buffer, and rotation speed of 50 rpm was used for each experiment.

[3] = 1 g sample, agitated in ball mill 2 hrs at 30 Hz, ambient relative humidity 60%
Experimental: Samples (1 g) were initially placed in a small glass dish inside a desiccator for 30 minutes. The initial electric field of each sample was then measured with a JCI 140 Static Monitor (John Chubb Instrumentation, England) wherein the height of the field meter from top of the glass dish was 2.5 cm. […] Each sample was then placed in a 20 mL plastic vial and agitated inside of a ball mill (Retsch Mixer Mill MM 301) for 2 hrs at 30 Hz. After the agitation period, each sample was returned to the glass dish and the electric field was measured. The ambient relative humidity during the experiments was 60%.

[4] = CHMP Assessment Report; cited from earlier work

| Compound | Hygroscopicity [1] | Weight gain in DVS ([1]; up to 95% relative humidity (RH)) [%] | Intrinsic Dissolution Rate [2] [mg min^−1 cm^−2] | Electric Field After Agitation [3] [kV] | Hygroscopicity ([1]; listed as crystalline Form I) | Biopharmaceutics Classification System (BCS) class [4] |
| --- | --- | --- | --- | --- | --- | --- |
| Cc1ccc(S(=O)(=O)O)cc1.NC(=O)c1cccc2cn(-c3ccc([C@@H]4CCCNC4)cc3)nc12 [crystalline Form III, 2-{4-[(3S)-piperidin-3-yl]phenyl}-2H-indazole 7-carboxamide 4-methylbenzenesulfonate] | very hygroscopic | 15.8 |  |  |  |  |
| Cc1ccc(S(=O)(=O)O)cc1.NC(=O)c1cccc2cn(-c3ccc([C@@H]4CCCNC4)cc3)nc12 [Niraparib tosylate crystalline Form I, 2-{4-[(3S)-piperidin-3-yl]phenyl}-2H-indazole 7-carboxamide 4-methylbenzenesulfonate] |  |  | 0.1451 | 0.50 | non-hygroscopic | Class II |
